Reference: ChEMBL document CHEMBL1201862, “PubChem BioAssay data set” (2004)
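Each compound was tested at five concentrations against cells in 96-well plates for 48 hours. Here, GI50 denotes the concentration required for 50% inhibition of growth.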 The source made the active and inactive calls. No stated cut-off is given here; in the data, active = GI50 up to about 1.1 µM and inactive = higher.

Key:
Assay in all cases: NCI anticancer screen, dose series, 48 h
UACC-62 = tested on: UACC-62
SN12C = tested on: SN12C
ACHN = tested on: ACHN
NCI/ADR-RES = tested on: NCI/ADR-RES
HL-60 = tested on: HL-60
A498 = tested on: A498
MOLT-4 = tested on: MOLT-4
DU-145 = tested on: DU-145
OVCAR-5 = tested on: OVCAR-5
IGROV-1 = tested on: IGROV-1
HCT-15 = tested on: HCT-15
786-0 = tested on: 786-0
SNB-75 = tested on: SNB-75
A549 = tested on: A549
RXF 393 = tested on: RXF 393
HCT-116 = tested on: HCT-116
OVCAR-3 = tested on: OVCAR-3
NCI-H226 = tested on: NCI-H226
NCI-H23 = tested on: NCI-H23
PC-3 = tested on: PC-3
MDA-MB-231 = tested on: MDA-MB-231
EKVX = tested on: EKVX
SNB-19 = tested on: SNB-19
UACC-257 = tested on: UACC-257
MDA-N = tested on: MDA-N
OVCAR-8 = tested on: OVCAR-8
HT-29 = tested on: HT-29
RPMI-8226 = tested on: RPMI-8226
SK-MEL-5 = tested on: SK-MEL-5
Hs-578T = tested on: Hs-578T
BT-549 = tested on: BT-549
K562 = tested on: K562
T47D = tested on: T47D
TK-10 = tested on: TK-10
HOP-62 = tested on: HOP-62
UO-31 = tested on: UO-31
SF-295 = tested on: SF-295
KM12 = tested on: KM12
NCI-H460 = tested on: NCI-H460
CCRF-CEM = tested on: CCRF-CEM
SK-MEL-2 = tested on: SK-MEL-2
MCF7 = tested on: MCF7
SF-539 = tested on: SF-539
SF-268 = tested on: SF-268
COLO 205 = tested on: COLO 205
CAKI-1 = tested on: CAKI-1
M14 = tested on: M14
SR = tested on: SR
OVCAR-4 = tested on: OVCAR-4
HOP-92 = tested on: HOP-92
NCI-H522 = tested on: NCI-H522
Malme-3M = tested on: Malme-3M
SK-MEL-28 = tested on: SK-MEL-28
SK-OV-3 = tested on: SK-OV-3
SW-620 = tested on: SW-620
U-251 = tested on: U-251
HCC 2998 = tested on: HCC 2998
LOX IMVI = tested on: LOX IMVI

Measured: GI50

Cc1ccc(Cl)c2c(=O)c3ccc(N)cc3sc12
21.1 µM: HCT-15
inactive: UACC-62 14.9 µM | SN12C 15.7 µM | ACHN 21.4 µM | NCI/ADR-RES 15.1 µM | HL-60 2.99 µM | A498 17 µM | MOLT-4 11.7 µM | DU-145 26.1 µM | OVCAR-5 28 µM | IGROV-1 10 µM | 786-0 24.9 µM | SNB-75 13.6 µM | A549 24.9 µM | RXF 393 22.1 µM | HCT-116 16.9 µM | OVCAR-3 20 µM | NCI-H226 17.3 µM | NCI-H23 23.9 µM | PC-3 25 µM | MDA-MB-231 22.2 µM | EKVX 5.55 µM | SNB-19 27.9 µM | UACC-257 25.8 µM | MDA-N 30.1 µM | OVCAR-8 13.2 µM | HT-29 17.5 µM | RPMI-8226 15 µM | SK-MEL-5 17.5 µM | Hs-578T 10.4 µM | BT-549 29.4 µM | K562 18.4 µM | T47D 18.9 µM | TK-10 38.3 µM | HOP-62 19.7 µM | UO-31 13.9 µM | SF-295 13.5 µM | KM12 14.7 µM | NCI-H460 31.9 µM | CCRF-CEM 14.7 µM | SK-MEL-2 20.1 µM | MCF7 15.7 µM | SF-539 16 µM | SF-268 27.9 µM | COLO 205 16.6 µM | CAKI-1 24.9 µM | M14 28.4 µM

CO/N=C(\C(=O)N(C)n1cnnc1)c1csc(NC(c2ccccc2)(c2ccccc2)c2ccccc2)n1
> 10 µM: HCT-15
inactive: SR > 10 µM | OVCAR-4 > 10 µM | HOP-92 > 10 µM | NCI-H522 > 10 µM | SN12C > 10 µM | ACHN > 10 µM | NCI/ADR-RES > 10 µM | HL-60 > 10 µM | A498 > 10 µM | MOLT-4 > 10 µM | DU-145 > 10 µM | Malme-3M > 10 µM | OVCAR-5 > 10 µM | SK-MEL-28 > 10 µM | IGROV-1 > 10 µM | 786-0 > 10 µM | SNB-75 > 10 µM | A549 > 10 µM | RXF 393 > 10 µM | HCT-116 > 10 µM | OVCAR-3 > 10 µM | NCI-H226 > 10 µM | NCI-H23 > 10 µM | PC-3 > 10 µM | EKVX > 10 µM | SNB-19 > 10 µM | UACC-257 > 10 µM | MDA-N > 10 µM | OVCAR-8 > 10 µM | HT-29 > 10 µM | RPMI-8226 > 10 µM | SK-MEL-5 > 10 µM | Hs-578T > 10 µM | BT-549 > 10 µM | K562 > 10 µM | T47D > 10 µM | SK-OV-3 > 10 µM | TK-10 > 10 µM | HOP-62 > 10 µM | SW-620 > 10 µM | UO-31 > 10 µM | SF-295 > 10 µM | U-251 > 10 µM | KM12 > 10 µM | NCI-H460 > 10 µM | CCRF-CEM > 10 µM | SK-MEL-2 > 10 µM | MCF7 > 10 µM | SF-539 > 10 µM | SF-268 > 10 µM | HCC 2998 > 10 µM | COLO 205 > 10 µM | CAKI-1 > 10 µM | LOX IMVI > 10 µM | M14 > 10 µM

O=S(=O)(c1ccc(/N=N/O)nc1)c1ccc2ccccc2c1
> 100 µM: HCT-15
inactive: SR > 100 µM | OVCAR-4 32.6 µM | NCI-H522 > 100 µM | UACC-62 98.4 µM | SN12C 95.5 µM | ACHN > 100 µM | NCI/ADR-RES > 100 µM | HL-60 47.8 µM | A498 > 100 µM | MOLT-4 > 10 µM | DU-145 > 100 µM | Malme-3M 26.5 µM | OVCAR-5 > 100 µM | SK-MEL-28 > 100 µM | IGROV-1 54.8 µM | 786-0 > 100 µM | SNB-75 22.1 µM | A549 > 100 µM | HCT-116 > 100 µM | OVCAR-3 > 100 µM | NCI-H226 > 100 µM | NCI-H23 65.9 µM | PC-3 38.5 µM | MDA-MB-231 > 100 µM | EKVX > 100 µM | SNB-19 > 100 µM | UACC-257 > 100 µM | MDA-N > 100 µM | OVCAR-8 > 100 µM | HT-29 65.8 µM | SK-MEL-5 36.8 µM | Hs-578T > 100 µM | BT-549 > 100 µM | K562 75 µM | T47D 40 µM | SK-OV-3 > 100 µM | TK-10 94 µM | HOP-62 > 100 µM | SW-620 > 100 µM | UO-31 23.1 µM | SF-295 > 100 µM | U-251 > 100 µM | KM12 > 100 µM | NCI-H460 65.8 µM | CCRF-CEM 29.3 µM | SK-MEL-2 > 100 µM | MCF7 > 100 µM | SF-539 > 100 µM | SF-268 > 100 µM | COLO 205 97.3 µM | CAKI-1 88.5 µM | M14 > 100 µM
